# “Also recorded” adds a separate entry of the source.
# Assays:
# ear of the BALB/c mouse = test: Tolerance study: anti-irritant in preventive treatment before topical Differin gel, ear thickness (edema); format: in vivo; conditions: for effect of the anti-irritant on the irritation caused by Differin gel (in words): anti-irritant applied before Differin gel; for % AUC inhibition vs Differin (reduction of edema/irritation due to Differin gel): anti-irritant solution followed by Differin gel, D1-D6, AUC D2-D19
# Protocol: The anti-irritants used are formulated, unless otherwise indicated, in an ethanol/water (50:50) vehicle at the concentrations shown in the table below.
# The goal of the present study is to compare the irritant power of a reference gel, comprising 0.1% adapalene, when this treatment is preceded or not preceded by treatment with an anti-irritant.
# The treatment consists of a daily topical application (20 μl) of anti-irritant, formulated in an aqueous/alcoholic vehicle (50% ethanol and 50% water by volume), on the internal face of the right ear of BALB/c mice divided into 15 groups (female mice approximately 9 weeks old), followed by a topical application (20 μl) of Differin® gel (reference gel comprising 0.1% adapalene) at the rate of one application of each formulation per day for 6 days.
# Evaluation is carried out by measurements of the thickness of the ear by means of the Oditest and by clinical observation of the animals from the 2nd to 19th day.
# [1] = system: comedones on the back of the Rhino mouse; test: Comedolytic activity of Differin gel alone or preceded by an anti-irritant on the Rhino mouse; format: in vivo; conditions: split treatment, 18 days
# Description: The goal of the present study is to compare the comedolytic activity of Differin® gel (reference gel comprising 0.1% adapalene) whether this treatment is preceded or not preceded by a treatment with an anti-irritant.
Molecule,effect of the anti-irritant on the irritation caused by Differin gel (in words) (ear of the BALB/c mouse),effect on the comedolytic activity of Differin gel (in words) [1],% AUC inhibition vs Differin (reduction of edema/irritation due to Differin gel) (ear of the BALB/c mouse)
"NC(=O)NC1NC(=O)NC1=O (stereo not drawn) [allantoin, Allantoin]",effective in reducing the irritation,does not reduce the comedolytic activity,
O=C(O)CN(CCN(CC(=O)O)CC(=O)O)CC(=O)O [EDTA],effective in reducing the irritation,,
"O=S(=O)([O-])[O-].[Zn+2] [zinc sulfate, Zinc sulfate]",a reduction in the irritation; also recorded: effective in reducing the irritation,,25%
"O=[N+]([O-])[O-].O=[N+]([O-])[O-].[Sr+2] [strontium nitrate, Strontium nitrate]",effective in reducing the irritation,does not reduce the comedolytic activity,
"CC1(C)[C@@H](O)CC[C@]2(C)[C@H]3C(=O)C=C4[C@@H]5C[C@@](C)(C(=O)O)CC[C@]5(C)CC[C@@]4(C)[C@]3(C)CC[C@@H]12 [enoxolone, Enoxolone, reference compound]",virtually no effect; also recorded: do not have an effect,,
Sodium choleate,slightly reduces; also recorded: effective in reducing the irritation,,9%
Potassium disodium salt of β-glycyrrhizic acid [reference compound],virtually no effect; also recorded: do not have an effect,,
"O.O.O.O.O.O.[Cl-].[Cl-].[Sr+2] [strontium chloride hexahydrate, Strontium chloride hexahydrate]",effective in reducing the irritation,,

# Reference: US20090098219A1, “Cosmetic/pharmaceutical compositions comprising retinoids and anti-irritants and treatment of keratinization disorders therewith” (GALDERMA RESEARCH & DEVELOPMENT, priority 2005, published 2009)
